Test results taken from paper PMC3880124 (MedChemComm, 2013).
Like-named read-outs stand apart in the source and are kept apart here.

Tests used:
SK1 [1] = biological target: T1, SK1 (Homo sapiens, UniProt Q9NYA1); assay: SK1 expression in PASMC; settings: 10 μM, 24 h, western blot
PASMC = settings: 24 h
SK1 [2] = biological target: T1, SK1; assay: Inhibition of SK1 activity; settings: compound at 50 μM; Sph 3 μM
SK1 [3] = biological target: T1, SK1; assay: Test of compounds as SK1 substrates; assay type: biochemical; settings: compound at 50 μM
SK2 [4] = biological target: T2, SK2 (Homo sapiens, UniProt Q9NRA0); assay: Test of compounds as SK2 substrates; assay type: biochemical; settings: compound at 50 μM
T2 sequence (Q9NRA0 1-654): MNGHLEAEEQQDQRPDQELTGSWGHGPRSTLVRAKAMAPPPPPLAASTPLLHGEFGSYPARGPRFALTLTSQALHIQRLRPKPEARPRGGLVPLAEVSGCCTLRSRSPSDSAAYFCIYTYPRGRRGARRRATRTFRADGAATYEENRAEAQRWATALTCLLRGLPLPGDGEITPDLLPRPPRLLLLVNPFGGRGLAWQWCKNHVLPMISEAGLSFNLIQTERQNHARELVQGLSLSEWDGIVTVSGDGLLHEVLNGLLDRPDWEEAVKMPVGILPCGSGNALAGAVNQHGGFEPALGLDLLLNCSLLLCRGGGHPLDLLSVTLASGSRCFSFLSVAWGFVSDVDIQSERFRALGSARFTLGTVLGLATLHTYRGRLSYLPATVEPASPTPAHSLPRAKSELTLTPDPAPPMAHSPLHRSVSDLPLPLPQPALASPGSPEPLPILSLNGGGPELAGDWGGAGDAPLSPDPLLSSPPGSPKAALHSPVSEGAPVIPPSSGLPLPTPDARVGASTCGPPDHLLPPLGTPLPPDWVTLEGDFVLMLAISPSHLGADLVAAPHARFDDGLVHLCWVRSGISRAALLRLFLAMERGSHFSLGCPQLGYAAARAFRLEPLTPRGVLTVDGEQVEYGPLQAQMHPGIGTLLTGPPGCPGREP

SK2 [5] = biological target: T2, SK2; assay: Inhibition of SK2 activity; assay type: biochemical; settings: compound at 50 μM; Sph 10 μM

T1 sequence (Q9NYA1 whole entry): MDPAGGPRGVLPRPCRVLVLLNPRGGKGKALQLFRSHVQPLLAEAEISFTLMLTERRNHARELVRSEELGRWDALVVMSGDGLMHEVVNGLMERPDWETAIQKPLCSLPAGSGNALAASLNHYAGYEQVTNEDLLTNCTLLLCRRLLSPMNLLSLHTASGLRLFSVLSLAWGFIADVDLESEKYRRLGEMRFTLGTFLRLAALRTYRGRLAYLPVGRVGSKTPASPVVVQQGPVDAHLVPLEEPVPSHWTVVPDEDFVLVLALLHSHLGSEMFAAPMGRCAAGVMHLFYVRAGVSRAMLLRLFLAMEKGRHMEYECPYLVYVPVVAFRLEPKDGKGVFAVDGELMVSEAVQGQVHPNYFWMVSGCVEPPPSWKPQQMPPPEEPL

Compound	SK1 inhibition in words (SK1 [2])	substrate of SK1 (SK1 [3])	substrate of SK2 (SK2 [4])	SK2 inhibition in words (SK2 [5])	also measured
CCCCCCCCCCCCCCC[C@@H](O)[C@H](C)N [55-21, (2S,3R)-2-amino-3-octadecanol]	more effective SK1 inhibitors	–	–	–	effect on SK1 expression (SK1 [1]): reduced the expression of SK1; effect on DNA synthesis (PASMC; 100 nM and 1 μM): significantly inhibited DNA synthesis
CCCCCCCCCCCCC/C=C\[C@@H](O)[C@@H](N)CO [67-302]	–	weak substrates of SK1	efficiently phosphorylated by SK2	–	–
CCCCCCCCCCCCCCC[C@@H](O)[C@H](CO)NC(=S)Nc1cccc(F)c1 [F-01]	–	weak substrates of SK1	very weak substrates of SK2	less effective	–
CCCCCCCCCCCCCCC[C@@H](O)[C@H](CO)NC(=S)Nc1cccc(C(F)(F)F)c1 [F-02]	–	–	very weak substrates of SK2	–	effect on SK1 expression (SK1 [1]): without effect on SK1 expression
Cc1cc(CS(=O)(=O)c2ccccc2)cc(OCc2ccc(CN3CCC[C@@H]3CO)cc2)c1 [PF-543]	–	–	–	–	effect on DNA synthesis (PASMC; 10 nM and 100 nM): ineffective at reducing DNA synthesis

Continued, in another order:

SK1 inhibition in words (SK1 [2])	substrate of SK1 (SK1 [3])	substrate of SK2 (SK2 [4])	SK2 inhibition in words (SK2 [5])	Compound	also measured
weak inhibitor of both SK isoforms	–	–	weak inhibitor of both SK isoforms	CCCCCCCCCCCCC/C=C/[C@@H](O)[C@H](CO)NC(=S)Nc1ccc(C(F)(F)F)cc1 [67-330]	–
–	weak substrates of SK1	–	–	CCCCCCCCCCCCCC[C@H]1OC[C@H](NC(=S)Nc2c(F)c(F)c(F)c(F)c2F)[C@@H]1O [67-341]	–
effective SK1 inhibitor	–	–	–	CCCCCCCCCCCCCCOC[C@@H](O)[C@H](C)N(C)C [77-7]	–
nonselective SK inhibitor	weak substrates of SK1	–	nonselective SK inhibitor	CCCCCCCCCCCCCCC[C@@H](O)[C@H](C)[N+](C)(C)C.Cc1ccc(S(=O)(=O)[O-])cc1 [77-13]	–
–	–	–	abolished SK1 and SK2 activity	CCCCCCCCCCCCc1ccc(C(=O)N2CCC[C@H]2C(=N)N)cc1.Cl [VPC96091, reference compound]	effect on DNA synthesis (PASMC; 300 nM): ineffective at reducing DNA synthesis
